One series concerns Sarcina lutea IAM1009. In words: in vitro MIC, agar streak method. The class given is cell-based. Conditions: Micrococcus luteus, IAM1009, Sarcina lutea IAM-1009; Heart infusion agar; read-out: MIC.
The subject of series [1] is Micrococcus flavus ATCC-10240. In words: in vitro MIC, agar streak method. Type of series: cell-based. Conditions: ATCC10240; Micrococcus flavus ATCC-10240; Heart infusion agar; read-out: MIC. An excerpt:
(§1) | ^(1) Heart infusion agar

Series [2] relates to Bacillus subtilis IAM-1027. As to the kind of experiment: in vitro MIC, agar streak method. The class given is cell-based. Conditions: IAM1027; Bacillus subtilis IAM-1027; Heart infusion agar; read-out: MIC.
Excerpt: as §1

The test system of series [3] is Escherichia coli K-12 IAM-1264. In words: in vitro MIC, agar streak method. Type of series: cell-based. The settings on record: IAM1264; Escherichia coli K-12 IAM-1264; Heart infusion agar; read-out: MIC.
Excerpt: as §1

In series [4] the test system is Pseudomonas aeruginosa IFO-12689. As to the kind of experiment: in vitro MIC, agar streak method. Type of series: cell-based. Conditions: IFO12689, Heart infusion agar.
Excerpt: as §1

For series [5], the system named is Escherichia coli NIHJ IFO-12734. As to the kind of experiment: in vitro MIC, agar streak method. The class given is cell-based. The settings on record: IFO12734; Escherichia coli NIHJ IFO-12734; Heart infusion agar; read-out: MIC.
Excerpt: as §1

The subject of series [6] is Staphylococcus aureus 209P Stf. In words: in vitro MIC, agar streak method. Type of series: cell-based. Conditions: Heart infusion agar.
Excerpt: as §1

Series [7] deals with Mycobacterium smegmatis IFO-13167. As to the kind of experiment: in vitro MIC, agar streak method. Type of series: cell-based. The settings on record: Mycolicibacterium smegmatis, IFO13167; Mycobacterium smegmatis IFO-13167; Heart infusion agar; read-out: MIC.
Excerpt: as §1

In series [8] the test system is Candida albicans ATCC-10231. As to the kind of experiment: in vitro MIC, agar streak method. Type of series: cell-based. The settings on record: ATCC10231; Candida albicans ATCC-10231; Sabouraud dextrose agar; read-out: MIC. An excerpt: (§2) | ^(2) Sabouraud dextrose agar
For series [9], the system named is Candida tropicalis ATCC-13803. As to the kind of experiment: in vitro MIC, agar streak method. The class given is cell-based. The settings on record: ATCC13803; Candida tropicalis ATCC-13803; Sabouraud dextrose agar; read-out: MIC.
Excerpt: as §2

Series [10] concerns Staphylococcus aureus 209P IAM-1011. As to the kind of experiment: in vitro MIC, agar streak method. Type of series: cell-based. The settings on record: Heart infusion agar, read-out: MIC.
The subject of a further series is P388 leukaemia. As to the kind of experiment: Antitumor effect against P388 leukaemia in CDF1 mice. The class given is in vivo. The settings on record: Mus musculus, ip, days 1, 5 and 9, 1×10^6 P388 cells i.p., CDF1 mice, read-out: Mean survival (T/C, %); for response vs control in vivo at 3.75 mg/kg: 3.75 mg/kg/day i.p.; for response vs control in vivo at 7.5 mg/kg: 7.5 mg/kg/day i.p.; for response vs control in vivo at 15 mg/kg: 15.0 mg/kg/day i.p. As to the method: The anthracycline glycosides provided by the present invention were tested against P388 leukaemia in mice. When CDF1 mice are inoculated with 1×10^6 cells of P388 intraperitoneally and each of the antibiotics is administered intraperitoneally on days 1, 5 and 9, the survival time of the treated mice is prolonged as shown in Table 5 hereinafter.

Another series is described as follows: in vivo. Conditions: mouse, ip, mice, single i.p. injection, judged 72 hours after, read-out: acute intraperitoneal LD50. The method, then: The acute intraperitoneal LD50 in mice judged 72 hours after a single injection of the antibiotics is about 90 mg/kg for auramycin C, auramycin D, sulfurmycin C and sulfurmycin D, 40~80 mg/kg for auramycin G and sulfurmycin G and 20~40 mg/kg for auramycin E and sulfurmycin E.

Molecules are shown by their SMILES. In brackets after ≈: the same amount, converted by molar mass.

What is called MIC is the lowest concentration that inhibits growth of the organism. As a reminder, the LD50 is the dose expected to kill half of the subjects tested. For `COC(=O)C1c2cc3c(c(O)c2C(OC2CC(N(C)C)C(O)C(C)O2)CC1(C)O)C(=O)c1c(O)cccc1C3=O` (stereo not shown) [Auramycin D], the MIC with Sarcina lutea IAM1009 was 6.25 µg/mL (≈ 11.2 µM); in [1], 12.5 µg/mL (≈ 22.5 µM); in series [2], 12.5 µg/mL (≈ 22.5 µM); in series [3] it was more than 50 µg/mL; in [4], more than 50 µg/mL; in [5], more than 50 µg/mL. Further, the MIC in [6] was 12.5 µg/mL (≈ 22.5 µM); in series [7] it was 3.13 µg/mL (≈ 5.63 µM); in series [8] it was more than 50 µg/mL; in series [9], more than 50 µg/mL; in [10], 12.5 µg/mL (≈ 22.5 µM). Besides, the response vs control in vivo at 3.75 mg/kg in the series with P388 leukaemia was 103%. For the same molecule, in the series with P388 leukaemia, the response vs control in vivo at 7.5 mg/kg was 149%. Besides, the response vs control in vivo at 15 mg/kg in the series on P388 leukaemia stood at 141%. In addition, the median lethal dose (LD50) at 72 h in “in vivo” was approximately 90 mg/kg.

On to `COC(=O)C1c2cc3c(c(O)c2C(OC2CC(N(C)C)C(OC4CC(O)C(O)C(C)O4)C(C)O2)CC1(O)CC(C)=O)C(=O)c1c(O)cccc1C3=O` (stereo not shown) [Sulfurmycin C], for which the MIC in the series with Sarcina lutea IAM1009 is 6.25 µg/mL (≈ 8.59 µM); in [1] it was 6.25 µg/mL (≈ 8.59 µM); in [2], 12.5 µg/mL (≈ 17.2 µM); in [3], more than 50 µg/mL; in series [4] it was more than 50 µg/mL; in series [5] it was more than 50 µg/mL. For the same molecule, the MIC in series [6] is 6.25 µg/mL (≈ 8.59 µM); in [7], 3.13 µg/mL (≈ 4.3 µM); in series [8], more than 50 µg/mL; in series [9] it was more than 50 µg/mL; in series [10], 6.25 µg/mL (≈ 8.59 µM). For the same molecule, the response vs control in vivo at 1.88 mg/kg in the series on P388 leukaemia (1.88 mg/kg/day i.p.) is 131%. Besides, the response vs control in vivo at 3.75 mg/kg in the series on P388 leukaemia came to 141%. Moreover, the response vs control in vivo at 7.5 mg/kg in the series on P388 leukaemia is 138%. Moreover, in the series with P388 leukaemia, the response vs control in vivo at 15 mg/kg came to 141%. Besides, the LD50 at 72 h in “in vivo” was approximately 90 mg/kg.

Values taken from patent US4401812A, “Anthracycline antibiotics” (Hoffmann-La Roche Inc., priority 1980, dated 1983).
